# Reference: patent publication US9675663B2, “TUSC2 therapies” (Board of Regents, The University of Texas System, priority 2011, dated 2017)
# “And” between values parts separate entries of the source, which are not always exact repeats. Identical values can stand only once.
# Assays:
# [1] = system: HCC366; experiment: IC50 of MK2206 alone or with FUS1-nanoparticles; format: cell-based; details: Homo sapiens
# Description: (§1) FIG. 17: Single drug treatment of MK2206 on lung cancer cells. […] Cell lines that were further analyzed are indicated by arrows.
# (§2) FIG. 18: FUS1/MK2206-induced cell death in lung cancer cell lines. Graphs show the relative survival rates for the indicated cancer cells (y-axis) when contacted with empty vector (EV) or FUS1 nanoparticles in the presence of increasing concentrations of MK2206 (x-axis).
# (§3) Single drug treatment with AKT inhibitor MK2206 was also assessed in a wide range of lung cancer cell lines. Cell lines indicated by arrows (H322, A549, H2887 and […]) were subjected to further analysis. First, each of the cell lines was treated with FUS1 nanoparticles or empty vector at increasing concentrations of MK2206. […] The effect of the combined therapy was especially evident in H2887, H322 and HCC366 cells. Next, the ability of combined FUS1/MK2206 treatment to inhibit colony formation was studied in the cell lines. […] Thus, FUS1 treatment is able to sensitize cancer cells to the effects of kinase inhibitors such as the AKT inhibitor MK2206. This effect was quantified relative to each studied cell line below in Table 13.
# [2] = system: H2887; experiment: IC50 of MK2206 alone or with FUS1-nanoparticles; format: cell-based; details: Homo sapiens, NCI-H2887
# Description: as §1, §2, §3
# [3] = system: H322; experiment: IC50 of MK2206 alone or with FUS1-nanoparticles; format: cell-based; details: Homo sapiens, NCI-H322
# Description: as §1, §2, §3
# [4] = system: A549; experiment: IC50 of MK2206 alone or with FUS1-nanoparticles; format: cell-based; details: Homo sapiens
# Description: as §1, §2, §3
# [5] = system: phosphorylated AMPK, AKT, mTOR and S6K; experiment: Immunoblot of phosphorylated signaling proteins in FUS1/MK2206-treated cell lines; format: cell-based, human; details: addition of MK2206; HCC366 or H322 cells
# Description: FIG. 21: Immunoblot of p-AKT, p-AMPK and p-mTOR in FUS1/MK2206-treated cell lines. Phosphorylation specific antibodies were used to assess expression of phosphorylated AMPK, AKT, mTOR and S6K in HCC366 or H322 cells. Cells were treated with empty vector (EV); FUS1 nanoparticles (FUS1); MK2206; empty vector+MK2206 (EV+MK); or FUS1 nanoparticles+MK2206 (FUS1+MK) prior to assessment for phosphorylated protein expression. Immunoblot of β-actin was used as a loading control.
# (§4) To better determine the mechanism for synergistic FUS1/MK2206 effect, treated cells were subjected to an immunoblots to assess the phosphorylation status of cell signaling molecules. […] Thus, FUS1-increased sensitivity to MK2206 is associated with the down-regulation of AKT and mTOR phosphorylation and up-regulation of AMPK phosphorylation. In view of these studies a proposed FUS/MK2206 signaling pathway is provided as FIG. 25.
# [6] = system: HCC366 and H322 cells; experiment: Effect of AMPK inhibitor on FUS1/MK2206-induced cell death; format: cell-based, human; details: AMPK inhibitor present
# Description: FIG. 23: The effect of AMPK inhibitor on FUS1/MK2206-induced cell death. Cell survival was assessed in HCC366 and H322 cells treated with FUS1 nanoparticles and various concentrations of MK2206 in the presence or absence of AMPK inhibitor Compound C. Graphs show relative cell survival (y-axis) at various concentrations of MK2206 (x-axis) with and without AMPK inhibitor as indicated.
# as §4
# [7] = system: A549 cells; experiment: Colony formation assay; format: cell-based, human; details: for Colony formation normalized on EV: EV + PBS = 100%; for Colony formation, average / Colony formation, groups 1-3 (replicates): number after + = μg Erlotinib; for Colony formation normalized on pc301: pc301PBS = 100%
# Description: FIG. 8: Fus1 and Erlotinib combined treatment effect on colony formation of A549 cells. […] “EV” indicates empty vector; Fus1 indicates a vector containing Fus1; numerical values following “+” indicate μg of Erlotinib; PBS indicates Phosphate-Buffer Saline control.
# (§5) To assess cooperative effects of tumor growth data between FUS-1 (FUST) and Erlotinib (Erlo) a Bayesian Bootstrapping analysis approach was used. The Pr(min(μF, μE)<μC|(data) was calculated i.e., the posterior probability that the minimum of the two posterior mean colony formation for FUS-1 alone, μF, or Erlotinib alone, μE, […] the mean posterior colony formation for the combination μC. This probability calculates the likelihood that average colony formation in the combination arm will be less than the minimum of the two single agent arms. Cooperative effects are shown if this posterior probability is large. Thus, the probability of cooperative effect ranges from 0.0 to 1.0 where 0 means no chance of a true cooperative effect given the data observed while 1 means 100% certainty of a cooperative effect given the data observed. The Statistical software S-PLUS 8.0 were used for all the analyses.
# [8] = system: H460 cells; experiment: Colony formation assay; format: cell-based, human; details: for Colony formation normalized on EV: EV + PBS = 100%; for Colony formation, average / Colony formation, groups 1-3 (replicates): number after + = μg Erlotinib
# Description: FIG. 9: Fus1 and Erlotinib combined treatment effect on colony formation of H460 cells. […] “EV” indicates empty vector; Fus1 indicates a vector containing Fus1; numerical values following “+” indicate μg of Erlotinib; PBS indicates Phosphate-Buffer Saline control.
# as §5
# [9] = system: H322 cells; experiment: Colony formation assay; format: cell-based, human; parameters: Colony formation, groups 1-3 (replicates) / Colony formation, average: unit not given here; details: for Colony formation normalized on EV: EV + PBS = 100%; for Colony formation, average / Colony formation, groups 1-3 (replicates): number after + = μg Erlotinib; for Colony formation normalized on pc301: pc301PBS = 100%
# Description: FIG. 7: Fus1 and Erlotinib combined treatment effect on colony formation of H322 cells. […] “EV” indicates empty vector; Fus1 indicates a vector containing Fus1; numerical values following “+” indicate μg of Erlotinib; PBS indicates Phosphate-Buffer Saline control. […]
# as §5
# [10] = system: H1299 cells; experiment: Colony formation assay; format: cell-based, human; parameters: Colony formation, groups 1-3 (replicates) / Colony formation, average: unit not given here; details: for Colony formation normalized on EV: EV + PBS = 100%; for Colony formation, average / Colony formation, groups 1-3 (replicates): number after + = μg Erlotinib; for Colony formation normalized on pc301: pc301PBS = 100%
# Description: FIG. 6: Fus1 and Erlotinib combined treatment effect on colony formation of H1299 cells. […] “EV” indicates empty vector; Fus1 indicates a vector containing Fus1; numerical values following “erlo” indicate μg of Erlotinib; PBS indicates Phosphate-Buffer Saline control. […]
# as §5
compound,measurement,setting,value
NC1(c2ccc(-c3nc4ccn5c(=O)[nH]nc5c4cc3-c3ccccc3)cc2)CCC1 [MK2206],IC50,[1],18.4 µM
same,IC50,[2],16.5 µM
same,IC50,[3],20.4 µM
same,IC50,[4],2.86 µM
same,phosphorylated AKT levels,[5],significantly reduced phosphorylated AKT levels
c1cc(-c2cnn3cc(-c4ccc(OCCN5CCCCC5)cc4)cnc23)ccn1 [Compound C],protection from FUS1/MK2206-mediated killing,[6],partially protect cancer cells from FUS1/MK2206-mediated killing
C#Cc1cccc(Nc2ncnc3cc(OCCOC)c(OCCOC)cc23)c1 [Erlotinib],Colony formation normalized on EV,[7]; listed as EV + 1,93%
same,Colony formation normalized on EV,[7]; listed as EV + 2.3,71%
same,"Colony formation, average",[7]; listed as EV + 1,2652
same,"Colony formation, groups 1-3 (replicates)",[7]; listed as EV + 1,3083 and 2538 and 2334
same,"Colony formation, average",[7]; listed as EV + 2.3,2044
same,"Colony formation, groups 1-3 (replicates)",[7]; listed as EV + 2.3,2484 and 1910 and 1738
same,"Colony formation, average",[7]; listed as pc301 + 1,3203
same,"Colony formation, groups 1-3 (replicates)",[7]; listed as pc301 + 1,3779 and 2436 and 3393
same,"Colony formation, average",[7]; listed as pc301 + 2.3,1693
same,"Colony formation, groups 1-3 (replicates)",[7]; listed as pc301 + 2.3,1625 and 1803 and 1651
same,Colony formation normalized on pc301,[7]; listed as EV + 1,47%
same,Colony formation normalized on pc301,[7]; listed as EV + 2.3,36%
same,Colony formation normalized on pc301,[7]; listed as pc301 + 1,57%
same,Colony formation normalized on pc301,[7]; listed as pc301 + 2.3,30%
same,Colony formation normalized on EV,[8]; listed as EV + 1,64%
same,Colony formation normalized on EV,[8]; listed as EV + 2.3,40%
same,"Colony formation, average",[8]; listed as EV + 1,1360
same,"Colony formation, groups 1-3 (replicates)",[8]; listed as EV + 1,1216 and 1393 and 1470
same,"Colony formation, average",[8]; listed as EV + 2.3,859
same,"Colony formation, groups 1-3 (replicates)",[8]; listed as EV + 2.3,750 and 968 and 858
same,Colony formation normalized on EV,[9]; listed as EV + 1,78%
same,Colony formation normalized on EV,[9]; listed as EV + 2.3,37%
same,"Colony formation, average",[9]; listed as EV + 1,38570
same,"Colony formation, groups 1-3 (replicates)",[9]; listed as EV + 1,43621 and 36971 and 35119
same,"Colony formation, average",[9]; listed as EV + 2.3,18091
same,"Colony formation, groups 1-3 (replicates)",[9]; listed as EV + 2.3,20293 and 16469 and 17511
same,"Colony formation, average",[9]; listed as pc301 + 1,39180
same,"Colony formation, groups 1-3 (replicates)",[9]; listed as pc301 + 1,44761 and 37701 and 35079
same,"Colony formation, average",[9]; listed as pc301 + 2.3,28211
same,"Colony formation, groups 1-3 (replicates)",[9]; listed as pc301 + 2.3,28610 and 28943 and 27080
same,Colony formation normalized on pc301,[9]; listed as EV + 1,65%
same,Colony formation normalized on pc301,[9]; listed as EV + 2.3,30%
same,Colony formation normalized on pc301,[9]; listed as pc301 + 1,66%
same,Colony formation normalized on pc301,[9]; listed as pc301 + 2.3,47%
same,Colony formation normalized on EV,[10]; listed as EV + 1,97%
same,Colony formation normalized on EV,[10]; listed as EV + 2.3,47%
same,"Colony formation, average",[10]; listed as EV + 1,16866
same,"Colony formation, groups 1-3 (replicates)",[10]; listed as EV + 1,18287.0 and 15301.0 and 17010.0
same,"Colony formation, average",[10]; listed as EV + 2.3,8142
same,"Colony formation, groups 1-3 (replicates)",[10]; listed as EV + 2.3,9216.0 and 8082.0 and 7128.0
same,"Colony formation, average",[10]; listed as pc301 + 1,29960
same,"Colony formation, groups 1-3 (replicates)",[10]; listed as pc301 + 1,31957.0 and 25107.0 and 32817.0
same,"Colony formation, average",[10]; listed as pc301 + 2.3,21288
same,"Colony formation, groups 1-3 (replicates)",[10]; listed as pc301 + 2.3,24425.0 and 18192.0 and 21246.0
same,Colony formation normalized on pc301,[10]; listed as EV + 1,40%
same,Colony formation normalized on pc301,[10]; listed as EV + 2.3,19%
same,Colony formation normalized on pc301,[10]; listed as pc301 + 1,71%
same,Colony formation normalized on pc301,[10]; listed as pc301 + 2.3,50%
